The values below come from US20080200519A1, “TETRAHYDRONAPHTHALENYLAMIDES, A PROCESS FOR THEIR PRODUCTION AND THEIR USE AS ANTI-INFLAMMATORY AGENTS” (priority 2007, published 2008).

The test system of test [1] is secretion of cytokine IL-8 in human monocyte cell line THP-1. The test can be described thus: inhibition of LPS-triggered IL-8 secretion in THP-1 cells (ELISA). The format is cell-based. The protocol:
The concentration of the cytokines was determined in the supernatant by means of commercially available ELISA kits.
Background: An ELISA detects its analyte on a solid surface through an enzyme-linked reagent.

The target in the next test is ER. The test can be described thus: steroid receptor binding, ER.
The target in test [2] is T1, progesterone receptor (PR) (Homo sapiens, UniProt P06401).
T1 construct: made in house
T1 sequence (P06401 1-933): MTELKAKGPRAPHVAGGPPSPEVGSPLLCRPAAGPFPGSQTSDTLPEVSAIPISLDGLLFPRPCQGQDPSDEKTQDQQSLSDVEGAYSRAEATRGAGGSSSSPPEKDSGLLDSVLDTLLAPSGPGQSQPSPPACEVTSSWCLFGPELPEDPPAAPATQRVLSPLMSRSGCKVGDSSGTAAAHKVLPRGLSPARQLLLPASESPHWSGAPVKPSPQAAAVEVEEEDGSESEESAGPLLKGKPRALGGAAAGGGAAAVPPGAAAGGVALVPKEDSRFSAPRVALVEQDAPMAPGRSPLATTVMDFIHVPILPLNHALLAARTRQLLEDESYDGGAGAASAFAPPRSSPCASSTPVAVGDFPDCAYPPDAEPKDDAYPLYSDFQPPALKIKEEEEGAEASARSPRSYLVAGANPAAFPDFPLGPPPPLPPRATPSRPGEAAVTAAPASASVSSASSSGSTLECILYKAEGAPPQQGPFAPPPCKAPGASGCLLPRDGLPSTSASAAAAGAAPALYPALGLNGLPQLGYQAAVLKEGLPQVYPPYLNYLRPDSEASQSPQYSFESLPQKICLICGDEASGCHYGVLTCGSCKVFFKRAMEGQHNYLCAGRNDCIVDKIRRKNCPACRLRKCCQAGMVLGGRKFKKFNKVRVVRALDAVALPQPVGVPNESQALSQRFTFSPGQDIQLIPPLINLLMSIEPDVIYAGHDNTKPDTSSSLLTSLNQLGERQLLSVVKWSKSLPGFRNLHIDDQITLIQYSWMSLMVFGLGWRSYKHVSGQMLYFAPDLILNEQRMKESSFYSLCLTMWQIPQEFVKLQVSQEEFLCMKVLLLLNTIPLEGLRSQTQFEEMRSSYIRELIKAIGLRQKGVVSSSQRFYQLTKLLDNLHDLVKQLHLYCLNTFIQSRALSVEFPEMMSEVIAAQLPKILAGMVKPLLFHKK
In words: binding to recombinantly produced progesterone receptor. The source says:
(§1) The binding of the substances to the glucocorticoid receptor (GR) and other steroid hormone receptors (mineral corticoid receptor (MR), progesterone receptor (PR) and androgen receptor (AR)) is examined with the aid of recombinantly produced receptors. Cytosol preparations of Sf9 cells, which had been infected with recombinant baculoviruses, which code for the GR, are used for the binding studies. In comparison to reference substance [^3H]-dexamethasone, the substances show a high to very high affinity to GR.

Test [3] has as its target T2, glucocorticoid receptor (GR) (Homo sapiens, UniProt P04150).
T2 construct: made in house; host or cells: Sf9 cells infected with recombinant baculovirus (cytosol preparation)
T2 sequence (P04150 1-777): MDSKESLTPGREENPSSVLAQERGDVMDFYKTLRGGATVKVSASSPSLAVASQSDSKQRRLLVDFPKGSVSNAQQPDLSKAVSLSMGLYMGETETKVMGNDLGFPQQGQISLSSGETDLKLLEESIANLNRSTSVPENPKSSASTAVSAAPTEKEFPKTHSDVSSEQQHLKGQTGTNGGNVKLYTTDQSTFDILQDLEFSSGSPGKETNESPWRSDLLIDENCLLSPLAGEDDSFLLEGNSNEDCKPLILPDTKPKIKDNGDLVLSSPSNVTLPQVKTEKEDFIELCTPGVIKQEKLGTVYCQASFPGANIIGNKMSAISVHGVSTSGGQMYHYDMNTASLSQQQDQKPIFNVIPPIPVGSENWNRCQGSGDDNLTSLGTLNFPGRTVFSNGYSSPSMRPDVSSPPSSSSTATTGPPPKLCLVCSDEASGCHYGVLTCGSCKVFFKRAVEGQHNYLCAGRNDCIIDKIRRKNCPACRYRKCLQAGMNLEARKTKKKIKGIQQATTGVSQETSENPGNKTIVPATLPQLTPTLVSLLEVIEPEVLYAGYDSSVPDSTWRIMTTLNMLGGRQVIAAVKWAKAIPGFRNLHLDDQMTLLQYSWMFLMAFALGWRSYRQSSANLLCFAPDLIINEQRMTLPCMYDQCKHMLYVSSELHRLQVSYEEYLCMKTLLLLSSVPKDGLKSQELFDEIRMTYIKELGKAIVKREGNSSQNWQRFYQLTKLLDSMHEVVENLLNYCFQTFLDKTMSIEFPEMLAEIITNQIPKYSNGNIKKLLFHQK
In words: binding to recombinantly produced glucocorticoid receptor, cytosol preparations of Sf9 cells, [3H]-dexamethasone as reference. Particulars: recombinant GR.
Description: as §1

Another test addresses T3, androgen receptor (AR) (Homo sapiens, UniProt P10275).
T3 construct: made in house
T3 sequence (P10275 1-920): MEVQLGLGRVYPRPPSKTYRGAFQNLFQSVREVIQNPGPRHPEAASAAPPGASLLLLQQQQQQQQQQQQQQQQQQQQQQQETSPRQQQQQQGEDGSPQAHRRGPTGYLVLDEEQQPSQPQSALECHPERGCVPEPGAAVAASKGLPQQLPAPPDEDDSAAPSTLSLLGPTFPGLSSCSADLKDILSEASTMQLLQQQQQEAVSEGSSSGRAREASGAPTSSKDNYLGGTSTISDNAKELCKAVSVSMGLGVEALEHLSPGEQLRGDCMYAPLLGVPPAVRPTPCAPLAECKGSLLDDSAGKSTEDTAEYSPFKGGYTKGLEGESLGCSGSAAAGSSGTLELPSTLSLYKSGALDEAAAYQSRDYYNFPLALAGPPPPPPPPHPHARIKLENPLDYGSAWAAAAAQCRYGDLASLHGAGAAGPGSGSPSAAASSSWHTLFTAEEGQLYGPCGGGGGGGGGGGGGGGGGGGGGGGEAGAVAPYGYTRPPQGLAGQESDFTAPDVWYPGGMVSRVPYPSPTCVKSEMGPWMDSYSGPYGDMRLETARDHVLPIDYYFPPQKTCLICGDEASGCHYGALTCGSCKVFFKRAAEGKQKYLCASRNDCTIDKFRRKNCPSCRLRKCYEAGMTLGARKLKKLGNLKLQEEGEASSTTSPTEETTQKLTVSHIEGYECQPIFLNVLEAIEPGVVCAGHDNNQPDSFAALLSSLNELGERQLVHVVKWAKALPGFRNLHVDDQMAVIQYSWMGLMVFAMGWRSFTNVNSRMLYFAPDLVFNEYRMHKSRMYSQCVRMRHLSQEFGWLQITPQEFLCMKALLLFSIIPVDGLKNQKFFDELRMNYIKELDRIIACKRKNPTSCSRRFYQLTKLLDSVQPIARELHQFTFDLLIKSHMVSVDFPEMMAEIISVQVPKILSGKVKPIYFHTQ
The test can be described thus: binding to recombinantly produced androgen receptor.
Description: as §1

Test [4] addresses T4, mineral corticoid receptor (MR) (Homo sapiens, UniProt P08235).
T4 construct: made in house
T4 sequence (P08235 1-984): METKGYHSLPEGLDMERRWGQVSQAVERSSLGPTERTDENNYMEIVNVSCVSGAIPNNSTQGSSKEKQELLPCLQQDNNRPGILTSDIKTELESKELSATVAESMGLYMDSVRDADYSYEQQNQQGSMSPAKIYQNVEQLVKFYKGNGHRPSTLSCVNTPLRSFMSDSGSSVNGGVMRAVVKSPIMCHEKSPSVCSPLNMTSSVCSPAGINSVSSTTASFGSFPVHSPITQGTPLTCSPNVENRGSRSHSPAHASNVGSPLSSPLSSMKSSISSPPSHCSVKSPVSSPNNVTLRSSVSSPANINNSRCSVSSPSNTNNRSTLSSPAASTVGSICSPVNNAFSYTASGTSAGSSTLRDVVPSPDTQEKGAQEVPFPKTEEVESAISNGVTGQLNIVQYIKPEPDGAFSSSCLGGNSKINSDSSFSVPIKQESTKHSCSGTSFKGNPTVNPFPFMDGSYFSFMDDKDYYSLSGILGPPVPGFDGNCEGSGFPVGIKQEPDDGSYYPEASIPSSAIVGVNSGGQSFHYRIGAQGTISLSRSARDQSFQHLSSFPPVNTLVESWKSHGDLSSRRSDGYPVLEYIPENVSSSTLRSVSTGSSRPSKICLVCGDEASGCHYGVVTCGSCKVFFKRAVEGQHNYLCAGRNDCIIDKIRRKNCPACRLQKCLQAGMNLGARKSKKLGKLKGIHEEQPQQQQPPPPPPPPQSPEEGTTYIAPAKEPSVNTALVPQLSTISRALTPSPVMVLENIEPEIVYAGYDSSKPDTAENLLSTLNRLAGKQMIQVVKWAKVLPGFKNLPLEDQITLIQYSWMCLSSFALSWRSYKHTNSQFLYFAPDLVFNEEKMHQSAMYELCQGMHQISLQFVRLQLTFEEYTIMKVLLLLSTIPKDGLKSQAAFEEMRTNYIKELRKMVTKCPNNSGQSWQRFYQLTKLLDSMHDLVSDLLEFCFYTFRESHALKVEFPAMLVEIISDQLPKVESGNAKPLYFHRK
The test can be described thus: binding to recombinantly produced mineral corticoid receptor.
Description: as §1

A value given as a limit tells only on which side of the number the result lay.

`COc1c(F)ccc2c1C(C)(C)C[C@](O)(C(F)(F)F)[C@H]2NC(=O)c1cnn(-c2ccc(F)cc2F)c1N` (relative stereo) [Example 3, 5-Amino-1-(2,4-difluorophenyl)-N-[(cis)-6-fluoro-1,2,3,4-tetrahydro-2-hydroxy-5-methoxy-4,4-dimethyl-2-(trifluoromethyl)naphthalene-1-yl]-1H-pyrazole-4-carboxamide]: the IC50 in test [1] (Homo sapiens, read-out: IC50(IL8)) was 7.1 nM; on ER, greater than 1000 nM; in test [2], greater than 1000 nM; in test [3], 6 nM; on androgen receptor (AR), greater than 1000 nM; in test [4] it was greater than 1000 nM. The “eff. relative to dexamethasone” value in test [1] (IL-8 inhibition) was found to be 96%.

A word on the IC50: it is the point on the concentration scale where inhibition reaches its midpoint.
